Measurements as given in patent US20130224300A1, “COMPOSITIONS AND METHODS THEREOF FOR ORAL ADMINISTRATION OF DRUGS” (priority 2011, published 2013).

Assay: Sumatriptan pharmacokinetics after oral gavage in cocoa butter with or without DDM
Assay type: in vivo, beagle dogs
Conditions: 25 mg in cocoa butter with 1% DDM vs no-DDM control, dog, 0-180 min
Experimental: The plot depicts serum concentrations of sumatriptan in a canine at zero through 180 min. following oral delivery (by gavage) of 25 mg sumatriptan in 1.0% DDM in a non-aqueous solution comprising cocoa butter. The solid circles represent plasma sumatriptan concentrations for doses not containing DDM (the control) and the solid squares show plasma sumatriptan concentrations for the sumatriptan doses containing DDM.
Sumatriptan, 2.5 g, was dissolved in 100 mL of cocoa butter at 45 deg. […] (in the liquid state) resulting in a solution having a sumatriptan concentration of 25 mg/mL. The solution was divided into two equal 50 mL portions. To one was added 500 mg DDM. Both solutions were kept at 45 degrees C. until the DDM is seen to have completely dissolved upon visual inspection yielding a 1% DDM solution in cocoa butter. The solutions were then cooled to about 4-10 degrees C. to allow the cocoa butter to solidify. One mL portions of the solidified cocoa butter-sumatriptan-DDM solution and one mL portions of the cocoa butter-sumatriptan (no DDM) control were formed into spherical balls and administered to beagle dogs by oral gavage. Blood samples were collected at timed intervals and plasma sumatriptan concentrations measured using a standard clinical assay.

## CNS(=O)(=O)Cc1ccc2[nH]cc(CCN(C)C)c2c1 [sumatriptan]
  increase in oral absorption based upon the relative AUC's: ~19%
